In PubChem BioAssay (NCI):
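Where inhibition never reached the appropriate level, the endpoint shown equals the highest concentration tested. Otherwise, values were interpolated linearly from a five-concentration, 48-hour dose response in 96-well plates. The concentration for 50% growth inhibition is given as GI50. Definition used: TGI = concentration required for complete inhibition of growth.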

Columns and labels:
Assay in all cases: NCI tumour cell line growth inhibition, 48 h
CAKI-1 renal = test system: CAKI-1 renal
HCT-15 colon = test system: HCT-15 colon
SF-268 CNS = test system: SF-268 CNS
U251 CNS = test system: U251 CNS
A498 renal = test system: A498 renal
OVCAR-5 ovarian = test system: OVCAR-5 ovarian
MALME-3M melanoma = test system: MALME-3M melanoma
SF-295 CNS = test system: SF-295 CNS
HOP-62 NSCLC = test system: HOP-62 NSCLC
CCRF-CEM leukemia = test system: CCRF-CEM leukemia

Row | SMILES | TGI (CAKI-1 renal) | TGI (HCT-15 colon) | TGI (SF-268 CNS) | TGI (U251 CNS) | TGI (A498 renal) | TGI (OVCAR-5 ovarian) | TGI (MALME-3M melanoma) | TGI (SF-295 CNS) | TGI (HOP-62 NSCLC) | TGI (CCRF-CEM leukemia) | GI50 (CAKI-1 renal) | GI50 (HCT-15 colon) | GI50 (SF-268 CNS) | GI50 (U251 CNS) | GI50 (A498 renal) | GI50 (MALME-3M melanoma) | GI50 (SF-295 CNS) | GI50 (HOP-62 NSCLC) | GI50 (CCRF-CEM leukemia) | GI50 (OVCAR-5 ovarian)
1 | CC1=NN(C(=O)CC(=O)Nc2cccc(C)c2)C(=O)C1N=Nc1ccc(S(=O)(=O)CCOS(=O)(=O)O)cc1 (centres undefined) | 2.96 µM | 4.83 µM | 28 µM | 13.6 µM | 37.1 µM | 66.2 µM | 13.6 µM | 11.3 µM | 25.9 µM | > 100 µM | – | – | – | – | – | – | – | – | – | –
2 | N#Cc1c(NC(=S)Nc2ccc(Cl)cc2)sc2c1CCN(N1CCc3c(sc(NC(=S)Nc4ccc(Cl)cc4)c3C#N)C1)C2 | > 100 µM | > 100 µM | > 100 µM | 86.2 µM | 36.9 µM | 31.1 µM | > 100 µM | 50.4 µM | 55.2 µM | > 100 µM | – | – | – | – | – | – | – | – | – | –
3 | N#CCCC(C=O)(CCC#N)CCC#N | > 100 µM | > 100 µM | > 100 µM | > 100 µM | > 100 µM | > 100 µM | > 100 µM | > 100 µM | – | > 100 µM | – | – | – | – | – | – | – | – | – | –
4 | C/C(=C1\N=C(c2ccccc2)OC1=O)c1ccccc1 | > 100 µM | > 100 µM | > 100 µM | > 100 µM | > 100 µM | > 100 µM | > 100 µM | > 100 µM | > 100 µM | > 100 µM | – | – | – | – | – | – | – | – | – | –
5 | O=C(Nc1ccccc1)N1CCN(C(=O)Nc2ccccc2)C1=S | > 100 µM | > 100 µM | 47.8 µM | > 100 µM | 7.64 µM | – | > 100 µM | 58.4 µM | 67.9 µM | > 100 µM | – | – | – | – | – | – | – | – | – | –
6 | C/C(=N\Nc1nc2ccccc2s1)c1ccncn1 | 12.2 µM | 15.9 µM | 9.56 µM | > 100 µM | > 100 µM | > 100 µM | 20.3 µM | 20.5 µM | > 36.3 µM | > 100 µM | – | – | – | – | – | – | – | – | – | –
7 | N#Cc1c(-c2ccc([N+](=O)[O-])cc2)c(C#N)c(=O)n(NS(=O)(=O)c2ccccc2)c1S | > 100 µM | > 100 µM | > 100 µM | > 100 µM | > 100 µM | > 100 µM | > 100 µM | > 100 µM | > 100 µM | 49.3 µM | – | – | – | – | – | – | – | – | – | –
8 | CC(=O)CC1(CBr)Nc2ccc([N+](=O)[O-])cc2NC1=O (centres undefined) | > 100 µM | > 100 µM | > 100 µM | > 100 µM | > 100 µM | > 100 µM | > 100 µM | > 100 µM | > 100 µM | > 100 µM | – | – | – | – | – | – | – | – | – | –
9 | O=C(O)c1c(CC(Cc2ccc3c(c2)CCC3)C(=O)O)ccc2c1CCC2 (centres undefined) | > 100 µM | > 100 µM | – | > 100 µM | > 100 µM | > 100 µM | > 100 µM | > 100 µM | > 100 µM | > 100 µM | – | – | – | – | – | – | – | – | – | –
10 | Cn1/c(=N\N=C2\C=C3CCCCC3(C)CC2)sc2ccccc21 (centres undefined) | > 100 µM | > 100 µM | > 100 µM | > 100 µM | > 100 µM | > 100 µM | > 100 µM | > 100 µM | > 100 µM | > 100 µM | – | – | – | – | – | – | – | – | – | –
11 | O=CCCCCCOCc1ccccc1 | > 66.8 µM | > 100 µM | > 100 µM | > 100 µM | > 100 µM | > 100 µM | > 100 µM | > 60.4 µM | 79.9 µM | > 69.9 µM | – | – | – | – | – | – | – | – | – | –
12 | Clc1ccc2c(c1)N(CCCN1CCCC13CCCCC3)c1ccccc1S2 | > 76.8 µM | 42.5 µM | > 58.7 µM | 23.6 µM | 33.2 µM | 36.3 µM | 28.1 µM | 29.2 µM | 33.4 µM | 28.3 µM | – | – | – | – | – | – | – | – | – | –
13 | CCOC(=O)NC(=S)N(CC(=O)c1cc(OC)c(OC)c(OC)c1)c1ccc(Cl)cc1 | > 100 µM | > 100 µM | > 100 µM | > 100 µM | > 100 µM | – | > 100 µM | > 100 µM | > 100 µM | > 100 µM | 63.5 µM | 62.6 µM | > 100 µM | 99.7 µM | 90.1 µM | > 100 µM | 76.7 µM | > 100 µM | 71.4 µM | –
14 | O=C1c2cc3c(cc2-c2c1c1cc(F)c(F)cc1c(=O)n2CCCn1ccnc1)OCO3 | 1.42 µM | > 100 µM | > 100 µM | 10.2 µM | 0.116 µM | > 100 µM | 1.21 µM | 0.0133 µM | 0.0477 µM | > 100 µM | < 0.01 µM | 0.117 µM | < 0.01 µM | < 0.01 µM | 0.0233 µM | 0.0856 µM | < 0.01 µM | < 0.01 µM | < 0.01 µM | 0.0832 µM
15 | C[n+]1cccc2ccc3cccnc3c21 | > 100 µM | > 100 µM | 55.8 µM | > 100 µM | > 100 µM | > 100 µM | 49.9 µM | > 100 µM | 75 µM | > 100 µM | – | – | – | – | – | – | – | – | – | –
16 | NC(=O)[C@H](Cc1ccc(O)cc1)Nc1c(O)c2c(c(O)c1Cl)C(=O)C=CC2=O | 5.18 µM | 3.89 µM | > 10 µM | > 8.11 µM | > 10 µM | > 10 µM | 3.78 µM | > 10 µM | > 10 µM | 1.04 µM | – | – | – | – | – | – | – | – | – | –
17 | COP(=O)(OC)OCN(C)CC/C=C(\C)CC/C=C(\C)CCC=C(C)C | 33.8 µM | 30.3 µM | 30.8 µM | 37.6 µM | > 100 µM | 39.1 µM | 28.2 µM | 32.5 µM | 29.7 µM | 51.9 µM | – | – | – | – | – | – | – | – | – | –
18 | CC(C)(CO[C@H]1C[C@H]2CC[C@@]1(C)C2(C)C)[N+](=O)[O-] | 60.3 µM | 51.6 µM | > 100 µM | 31.5 µM | 51.8 µM | 33.9 µM | 40.3 µM | 33.9 µM | 38.4 µM | > 100 µM | – | – | – | – | – | – | – | – | – | –
19 | Cc1c(C)c2c(c(N)c1C#N)C(=O)N(N)C2=O | > 100 µM | > 100 µM | > 100 µM | > 100 µM | > 100 µM | > 100 µM | > 100 µM | > 100 µM | – | > 100 µM | – | – | – | – | – | – | – | – | – | –
